Read-outs that look alike come from different tables or passages of the source.
Legend:
[1] = target: T1, human DGKα (Homo sapiens (Human), UniProt P23743); experiment: DGKα LIPGLO assay (extruded liposome substrate); assay type: biochemical
Method in brief: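 Human full-length DGKα, His-tagged and produced in Sf9 cells, assayed at 20 nM (4× stock) on extruded liposomes of PS, 0.25 mM DAG and 2.75 mM PC, preincubated 10 min. Reaction started with 300 μM ATP (stock) and ran 1 h in MOPS pH 7.5/MgCl2/CaCl2/DTT buffer.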

[2] = target: T2, human DGKζ (Homo sapiens (Human), UniProt Q13574); experiment: DGKζ LIPGLO assay (extruded liposome substrate); assay type: biochemical; conditions: extruded liposome substrate; read-out: DGKζ LIPGLO IC50
T2 sequence (Q13574 other isoform, or with tags, fused parts or gaps): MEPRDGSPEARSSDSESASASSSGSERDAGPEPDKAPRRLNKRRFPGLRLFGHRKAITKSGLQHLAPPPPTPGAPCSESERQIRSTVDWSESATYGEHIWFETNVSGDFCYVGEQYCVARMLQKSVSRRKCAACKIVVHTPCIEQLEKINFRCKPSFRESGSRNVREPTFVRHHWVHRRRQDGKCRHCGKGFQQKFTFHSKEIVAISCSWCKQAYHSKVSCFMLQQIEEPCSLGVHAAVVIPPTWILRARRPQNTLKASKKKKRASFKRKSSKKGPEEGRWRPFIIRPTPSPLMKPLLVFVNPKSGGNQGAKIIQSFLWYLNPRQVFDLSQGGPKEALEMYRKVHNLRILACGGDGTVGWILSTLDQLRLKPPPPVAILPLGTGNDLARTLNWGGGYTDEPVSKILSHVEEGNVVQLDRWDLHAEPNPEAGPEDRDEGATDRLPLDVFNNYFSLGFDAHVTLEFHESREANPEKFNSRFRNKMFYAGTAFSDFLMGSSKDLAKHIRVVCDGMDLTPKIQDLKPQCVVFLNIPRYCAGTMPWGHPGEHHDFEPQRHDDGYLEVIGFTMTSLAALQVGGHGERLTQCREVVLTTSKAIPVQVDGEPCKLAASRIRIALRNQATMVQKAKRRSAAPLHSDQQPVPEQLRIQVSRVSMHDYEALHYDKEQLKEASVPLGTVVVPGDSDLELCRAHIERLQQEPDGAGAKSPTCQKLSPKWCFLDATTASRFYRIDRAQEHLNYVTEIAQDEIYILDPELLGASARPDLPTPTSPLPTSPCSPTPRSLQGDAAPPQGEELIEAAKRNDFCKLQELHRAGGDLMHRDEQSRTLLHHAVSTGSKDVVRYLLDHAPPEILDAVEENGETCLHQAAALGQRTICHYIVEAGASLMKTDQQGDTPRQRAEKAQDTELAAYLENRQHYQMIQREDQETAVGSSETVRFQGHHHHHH
Method in brief: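 Recombinant DGKζ (Sf9-expressed, Ni/SEC/SP-purified) preincubated 10 min with extruded 100 nm PC/DAG/PS liposomes in 50 mM MOPS pH 7.5, 100 mM NaCl, 10 mM MgCl2, 1 μM CaCl2, 1 mM DTT. Started with 300 uM ATP solution (stock, pre-addition); 1 hr reaction. ADP-Glo luminescence; IC50 from 11 concentrations.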

[3] = target: T1, human DGKα; experiment: biochemical; conditions: detergent/lipid micelle substrate; read-out: DGKα IC50
Method in brief: (§1)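 Enzymes were baculovirus/Sf9 full-length human DGKα or DGKζ with His tag. The substrate was PS/DAG in octyl glucoside micelles, in MOPS pH 7.5 buffer with NaCl, MgCl2, CaCl2 and DTT.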

[4] = target: T2, human DGKζ; experiment: DGKζ assay (detergent/lipid micelle substrate); assay type: biochemical; conditions: detergent/lipid micelle substrate; read-out: DGKζ IC50
Method in brief: as §1

[5] = test system: pre-activated CD4 T cells and Raji cells; experiment: Raji CD4 T Cell IL2 Assay; assay type: cell-based

T1 sequence (P23743 other isoform, or with tags, fused parts or gaps): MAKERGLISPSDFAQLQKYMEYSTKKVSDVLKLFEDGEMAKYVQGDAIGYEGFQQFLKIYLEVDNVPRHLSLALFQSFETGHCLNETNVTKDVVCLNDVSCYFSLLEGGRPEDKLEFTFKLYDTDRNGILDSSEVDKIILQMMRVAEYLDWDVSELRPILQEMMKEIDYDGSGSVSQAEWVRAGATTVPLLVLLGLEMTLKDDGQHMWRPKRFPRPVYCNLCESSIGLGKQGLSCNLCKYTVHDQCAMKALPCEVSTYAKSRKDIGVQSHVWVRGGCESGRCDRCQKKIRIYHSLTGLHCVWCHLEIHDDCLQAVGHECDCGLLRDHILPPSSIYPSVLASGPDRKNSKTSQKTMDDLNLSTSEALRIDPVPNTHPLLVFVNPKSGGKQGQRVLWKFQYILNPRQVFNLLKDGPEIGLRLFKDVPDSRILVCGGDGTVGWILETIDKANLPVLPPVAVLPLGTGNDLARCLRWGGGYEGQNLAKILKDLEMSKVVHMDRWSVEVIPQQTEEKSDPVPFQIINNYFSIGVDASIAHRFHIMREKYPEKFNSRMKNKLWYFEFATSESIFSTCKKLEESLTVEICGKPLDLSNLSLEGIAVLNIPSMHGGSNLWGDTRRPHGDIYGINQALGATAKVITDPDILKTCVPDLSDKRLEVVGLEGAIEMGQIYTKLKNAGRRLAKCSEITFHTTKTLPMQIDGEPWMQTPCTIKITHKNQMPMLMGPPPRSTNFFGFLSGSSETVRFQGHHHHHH

In the case of Cn1c(=O)c(C#N)c(N2CCN(Cc3cc(F)ccc3O)CC2)c2nc(Cl)ccc21 [Example 312, 6-chloro-4-{4-[(5-fluoro-2-hydroxyphenyl)methyl]piperazin-1-yl}-1-methyl-2-oxo-1,2-dihydro-1,5-naphthyridine-3-carbonitrile], the IC50 [1] is reported as 220 nM, the IC50 [2] is reported as 16000 nM and the IC50 [3] is reported as 120 nM. For the same molecule, the IC50 [4] was > 240000 nM and the IC50 ([5]; Homo sapiens, Raji) was 240 nM.

With COc1cccc(F)c1CN1CCN(c2c(C#N)c(=O)n(C)c3ccc(Cl)nc23)CC1 [Example 335, 6-chloro-4-{4-[(2-fluor-6-methoxyphenyl)methyl]piperazin-1-yl}-1-methyl-2-oxo-1,2-dihydro-1,5-naphthyridine-3-carbonitrile] the IC50 [1] was 1900 nM, the IC50 [2] was 18000 nM and the IC50 [3] was 2700 nM. For the same molecule, the IC50 [4] was > 240000 nM and the IC50 ([5]; Homo sapiens, Raji) was 540 nM.

C#CCn1c(=O)c([N+](=O)[O-])c(N2CCN(C(CC)c3ccc(F)cc3)CC2)c2nc(C#N)ccc21 (single isomer, unassigned) [Example 140, 8-{4-[1-(4-fluorophenyl)propyl]piperazin-1-yl}-7-nitro-6-oxo-5-(prop-2-yn-1-yl)-5,6-dihydro-1,5-naphthyridine-2-carbonitrile] was tested, and the IC50 [1] was 2700 nM, the IC50 [2] was 130 nM and the IC50 [3] was 640 nM. For the same molecule, the IC50 [4] was 600 nM and the IC50 ([5]; Homo sapiens, Raji) was 6 nM.

Work on Cc1ccc2c(n1)c(N1CCN(Cc3cc(Br)ccc3O)CC1)c(C#N)c(=O)n2C [Example 277, 4-{4-[(5-bromo-2-hydroxyphenyl)methyl]piperazin-1-yl}-1,6-dimethyl-2-oxo-1,2-dihydro-1,5-naphthyridine-3-carbonitrile] yielded an IC50 [1] of 1700 nM, an IC50 [2] of 13000 nM and an IC50 [3] of 750 nM. The IC50 [4] was 45000 nM and the IC50 ([5]; Homo sapiens, Raji) was 79 nM.

Work on C#CCn1c(=O)c([N+](=O)[O-])c(N2CCN(C(c3ccc(F)cc3)c3ccc(F)cc3)CC2)c2nc(C#N)ccc21 [Example 118, 8-(4-(bis(4-fluorophenyl)methyl)piperazin-1-yl)-7-nitro-6-oxo-5-(prop-2-yn-1-yl)-5,6-dihydro-1,5-naphthyridine-2-carbonitrile] yielded an IC50 [1] of 1300 nM, an IC50 [2] of 61 nM and an IC50 [3] of 4200 nM. The IC50 [4] was 230 nM and the IC50 ([5]; Homo sapiens, Raji) was 18 nM.

Cn1c(=O)c(C(=O)C(F)(F)F)c(N2CCN(C(c3ccc(F)cc3)c3ccc(F)cc3)CC2)c2ncccc21 [Example 227, 4-(4-(bis(4-fluorophenyl)methyl)piperazin-1-yl)-1-methyl-3-(2,2,2-trifluoroacetyl)-1,5-naphthyridin-2(1H)-one] was tested, and the IC50 [1] was 230000 nM, the IC50 [2] was 11000 nM and the IC50 [3] was > 240000 nM. For the same molecule, the IC50 [4] was > 240000 nM and the IC50 ([5]; Homo sapiens, Raji) was 1500 nM.

For COc1ccc(CN2CCN(c3c(C#N)c(=O)n(C)c4ccc(Br)nc34)CC2)c(O)c1 [Example 295, 6-bromo-4-{4-[(2-hydroxy-4-methoxyphenyl)methyl]piperazin-1-yl}-1-methy-2-oxo-1,2-dihydro-1,5-naphthyridine-3-carbonitrile], the IC50 [1] was 160 nM, the IC50 [2] was 6900 nM and the IC50 [3] was 130 nM. For the same molecule, the IC50 [4] was 55000 nM and the IC50 ([5]; Homo sapiens, Raji) was 140 nM.

Cn1c(=O)c(C#N)c(N2CCN(Cc3ccc(Br)cc3O)CC2)c2nc(C#N)ccc21 [Example 263, 8-{4-[(4-bromo-2-hydroxyphenyl)methyl]piperazin-1-yl}-5-methyl-6-oxo-5,6-dihydro-1,5-naphthyridine-2,7-dicarbonitrile] showed an IC50 [1] of 220 nM, an IC50 [2] of 5200 nM and an IC50 [3] of 84 nM. The IC50 [4] was 14000 nM and the IC50 ([5]; Homo sapiens, Raji) was 35 nM.

Molecule Cn1c(=O)c(C#N)c(N2CCN(Cc3ccccc3Cl)CC2)c2nc(Br)ccc21 [Example 300, 6-bromo-4-{4-[(2-chlorophenyl)methyl]piperazin-1-yl}-1-methyl-2-oxo-1,2-dihydro-1,5-naphthyridine-3-carbonitrile] has an IC50 [1] of 24000 nM, an IC50 [2] of 98000 nM and an IC50 [3] of 2000 nM. The IC50 [4] was > 240000 nM and the IC50 ([5]; Homo sapiens, Raji) was 160 nM.

With Cn1c(=O)c(C#N)c(N2CCN(Cc3ccc(Cl)c(O)c3)CC2)c2nc(C#N)ccc21 [Example 332, 8-{4-[(4-chloro-3-hydroxyphenyl)methyl]piperazin-1-yl}-5-methyl-6-oxo-5,6-dihydro-1,5-naphthyridine-2,7-dicarbonitrile] the IC50 [1] was 2500 nM, the IC50 [2] was 6500 nM and the IC50 [3] was 1100 nM. It also gave an IC50 [4] of 67000 nM and an IC50 ([5]; Homo sapiens, Raji) of 530 nM.

With Cc1cccc(OCc2cncc(C#N)c2)c1C(c1ccc(F)cc1)N1CCN(c2c([N+](=O)[O-])c(=O)n(C)c3ccc(Br)nc23)CC1 (single isomer, unassigned) [Example 90, 5-((2-((4-(6-bromo-1-methyl-3-nitro-2-oxo-1,2-dihydro-1,5-naphthyridin-4-yl)piperazin-1-yl)(4-fluorophenyl)methyl)-3-methylphenoxy)methyl)nicotinonitrile] the IC50 [1] was > 240000 nM, the IC50 [2] was 15000 nM and the IC50 [3] was 82000 nM. The IC50 [4] was 190000 nM and the IC50 [5] was 630 nM.

Molecule COc1cc(F)ccc1C(c1ccc(F)cc1)N1CCN(c2c(C#N)c(=O)n(C)c3ccc(Br)nc23)CC1 (single isomer, unassigned) [Example 16, 6-bromo-4-{4-[(4-fluoro-2-methoxyphenyl)(4-fluorophenyl)methyl]piperazin-1-yl}-1-methyl-2-oxo-1,2-dihydro-1,5-naphthyridine-3-carbonitrile] has an IC50 [1] of 4300 nM, an IC50 [2] of 27000 nM and an IC50 [3] of 6400 nM. For the same molecule, the IC50 [4] was > 240000 nM and the IC50 ([5]; Homo sapiens, Raji) was 21 nM.

Molecule Cn1c(=O)c(C#N)c(N2CCN(Cc3cc(Br)ccc3O)CC2)c2nc(Cl)ccc21 [Example 275, 4-{4-[(5-bromo-2-hydroxyphenyl)methyl]piperazin-1-yl}-6-chloro-1-methyl-2-oxo-1,2-dihydro-1,5-naphthyridine-3-carbonitrile] has an IC50 [1] of 770 nM, an IC50 [2] of 10000 nM and an IC50 [3] of 300 nM. For the same molecule, the IC50 [4] was 58000 nM and the IC50 ([5]; Homo sapiens, Raji) was 73 nM.

For Cn1c(=O)c(C#N)c(N2CCN(Cc3cccc(Cl)c3O)CC2)c2nc(Cl)ccc21 [Example 293, 6-chloro-4-{4-[(3-chloro-2-hydroxyphenyl)methyl]piperazin-1-yl}-1-methyl-2-oxo-1,2-dihydro-1,5-naphthyridine-3-carbonitrile], the IC50 [1] was 600 nM, the IC50 [2] was 6000 nM and the IC50 [3] was 270 nM. The IC50 [4] was 58000 nM and the IC50 ([5]; Homo sapiens, Raji) was 110 nM.

Cn1c(=O)c(C#N)c(N2CCN(Cc3ccc(C(C)(C)C)cc3O)CC2)c2nc(Cl)ccc21 [Example 261, 4-{4-[(4-tert-butyl-2-hydroxyphenyl)methyl]piperazin-1-yl}-6-chloro-1-methyl-2-oxo-1,2-dihydro-1,5-naphthyridine-3-carbonitrile] showed an IC50 [1] of 710 nM, an IC50 [2] of 10000 nM and an IC50 [3] of 430 nM. For the same molecule, the IC50 [4] was > 240000 nM and the IC50 ([5]; Homo sapiens, Raji) was 21 nM.

CCC(c1ccc(F)cc1)N1CCN(c2c(C#N)c(=O)n(C)c3ccc(Br)nc23)CC1 (single isomer, unassigned) [Example 27, 6-bromo-4-{4-[1-(4-fluorophenyl)propyl]piperazin-1-yl}-1-methyl-2-oxo-1,2-dihydro-1,5-naphthyridine-3-carbonitrile] was tested, and the IC50 [1] was 110 nM, the IC50 [2] was > 240000 nM and the IC50 [3] was 110 nM. The IC50 [4] was > 240000 nM and the IC50 [5] was 57 nM.

Cn1c(=O)c(C#N)c(N2CCN(Cc3cc(O)cc(F)c3)CC2)c2nc(Cl)ccc21 [Example 338, 6-chloro-4-{4-[(3-fluoro-5-hydroxyphenyl)methyl]piperazin-1-yl}-1-methyl-2-oxo-1,2-dihydro-1,5-naphthyridine-3-carbonitrile] showed an IC50 [1] of 5100 nM, an IC50 [2] of 66000 nM and an IC50 [3] of 1100 nM. The IC50 [4] was > 240000 nM and the IC50 ([5]; Homo sapiens, Raji) was 580 nM.

Molecule C=CCOc1cc(F)ccc1C(C)N1CCN(c2c(C#N)c(=O)n(C)c3ccc(Cl)nc23)CC1 (stereo not drawn) [Example 195, 4-(4-(1-(2-(allyloxy)-4-fluorophenyl)ethyl)piperazin-1-yl)-6-chloro-1-methyl-2-oxo-1,2-dihydro-1,5-naphthyridine-3-carbonitrile] has an IC50 [1] of 1700 nM, an IC50 [2] of 98000 nM and an IC50 [3] of 220 nM. For the same molecule, the IC50 [4] was > 240000 nM and the IC50 ([5]; Homo sapiens, Raji) was 120 nM.

Work on Cc1ccc(O)c(CN2CCN(c3c(C#N)c(=O)n(C)c4ccc(Cl)nc34)CC2)c1 [Example 283, 6-chloro-4-{4-[(2-hydroxy-5-methylphenyl)methyl]piperazin-1-yl}-1-methyl-2-oxo-1,2-dihydro-1,5-naphthyridine-3-carbonitrile] yielded an IC50 [1] of 210 nM, an IC50 [2] of 3000 nM and an IC50 [3] of 120 nM. The IC50 [4] was 27000 nM and the IC50 ([5]; Homo sapiens, Raji) was 94 nM.

C#CCn1c(=O)c(C#N)c(N2CCN(C(c3ccc(F)cc3)c3ccc(F)cc3)CC2)c2nc(Br)ccc21 [Example 229, 4-(4-(bis(4-fluorophenyl)methyl)piperazin-1-yl)-6-bromo-2-oxo-1-(prop-2-yn-1-yl)-1,2-dihydro-1,5-naphthyridine-3-carbonitrile] was tested, and the IC50 [1] was > 240000 nM, the IC50 [2] was 11000 nM and the IC50 [3] was 14000 nM. The IC50 [4] was 14000 nM and the IC50 ([5]; Homo sapiens, Raji) was 120 nM.

Work on Cn1c(=O)c([N+](=O)[O-])c(N2CCN(C(c3ccccc3)c3ccccc3)CC2)c2nc(C#N)ccc21 [Example 223, 8-(4-benzhydrylpiperazin-1-yl)-5-methyl-7-nitro-6-oxo-5,6-dihydro-1,5-naphthyridine-2-carbonitrile] yielded an IC50 [1] of 9900 nM, an IC50 [2] of 620 nM and an IC50 [3] of 1900 nM. The IC50 [4] was 3200 nM and the IC50 ([5]; Homo sapiens, Raji) was 42 nM.
